# Literature values in article PMC7388056 (Biomacromolecules, 2020).
# Test system: integrins
substance,measurement,value
arginine–glycine–aspartic acid [RGD],"effectiveness relative to parent proteins, in words",orders-of-magnitude less effective than its parent proteins
